Results: patent publication US20150038591A1, “Compounds, compositions and methods for the treatment of tauopathies” (PROTEOTECH INC., priority 2002, published 2015)

What was measured:
aggregated Tau-441 = biological target: T1, aggregated Tau-441 (Homo sapiens, UniProt P10636); experiment: Thioflavin T fluorometry, dissolution/disruption/inhibition of preformed Tau aggregates; assay type: biochemical; settings: 3 days at 37° C.
T1 construct: purchased rPeptide
Method: Thioflavin T binds specifically to aggregated Tau or Tau tangles, and this binding produces a fluorescence enhancement at 485 nm that is directly proportional to the amount of aggregated Tau. The higher the fluorescence, the greater the amount of aggregated Tau.
In this study, Tau-441 or TauRD was pre-fibrillized or aggregated by combining with Heparin (SIGMA) at 1:1 wt/wt, then incubation at 37° C. and shaking at 1400 rpm for 8 days. […] Following 3-days of co-incubation, 50 μl of each incubation mixture was transferred into a 96-well microtiter plate containing 150 μl of distilled water and 50 μl of a Thioflavin T solution (i.e. […] Thioflavin T in 250 mM phosphate buffer, pH 6.8). The fluorescence was read at 485 nm (444 nm excitation wavelength) using an ELISA plate fluorometer after subtraction with buffer alone or compound alone, as blank.

Tau aggregates = Tau aggregates (Homo sapiens, UniProt P10636); experiment: Thioflavin S fluorometry, dissolution/disruption/inhibition of Tau aggregates; assay type: biochemical
Chain of Tau aggregates (P10636 1-441 isoform P10636-8): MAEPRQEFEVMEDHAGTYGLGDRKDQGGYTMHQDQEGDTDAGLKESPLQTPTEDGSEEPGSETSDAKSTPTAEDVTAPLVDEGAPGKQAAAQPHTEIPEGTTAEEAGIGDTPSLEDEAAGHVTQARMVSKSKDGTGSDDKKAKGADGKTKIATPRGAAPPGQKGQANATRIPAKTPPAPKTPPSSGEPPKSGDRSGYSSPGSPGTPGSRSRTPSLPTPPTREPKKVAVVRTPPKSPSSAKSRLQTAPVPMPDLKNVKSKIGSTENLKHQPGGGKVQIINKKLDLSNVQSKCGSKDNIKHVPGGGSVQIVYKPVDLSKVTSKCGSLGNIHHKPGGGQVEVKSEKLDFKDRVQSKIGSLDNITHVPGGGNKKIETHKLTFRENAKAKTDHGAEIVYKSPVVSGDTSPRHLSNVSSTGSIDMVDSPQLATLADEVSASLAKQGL
Method: In contrast to quantitation of Aβ fibrils, where ThioT is used, it was shown for tau aggregates that ThioS is more reproducible and independent of solvent characteristics. […] (Friedhoff, P et al. (1998) Biochem 10223-10230)
The Thio S assay involves the dilution of 500 μM ThioS stock 1:1 with PBS. Pipette 25 μl of this into the wells of a 96-well assay plate. Add 50 μl samples and 50 μl PBS and mix well. Read plates immediately on a fluorometer with the excitation set at 444 nm and emission set at 485 nm. […] Log transformed values are analyzed using “Nonlinear regression (curve fit) log(inhibitor) vs. normalized response—Variable slope” analysis.

[1] = Tau:test compound wt/wt ratio 1:0.001
[2] = Tau:test compound wt/wt ratio 1:0.01
[3] = Tau:test compound wt/wt ratio 1:0.1
[4] = Tau:test compound wt/wt ratio 1:1

T1 sequence (P10636 1-441 isoform P10636-8): as above

Row | SMILES | % dissolution/disruption/inhibition Tau (result ± S.D.) (aggregated Tau-441; [1]) [%] | % dissolution/disruption/inhibition Tau (result ± S.D.) (aggregated Tau-441; [2]) [%] | % dissolution/disruption/inhibition Tau (result ± S.D.) (aggregated Tau-441; [3]) [%] | % dissolution/disruption/inhibition Tau (result ± S.D.) (aggregated Tau-441; [4]) [%] | IC50 (Tau aggregates) [µM]
1 | Oc1ccc(Cc2ccc(O)c(O)c2)cc1O [Compound 3, 3,4,3′,4′-Tetrahydroxydiphenylmethane] | 17.0 ± 2.49 | 54.1 ± 2.62 | 89.2 ± 1.96 | 91.2 ± 2.59 | 32.4
2 | Oc1ccc(CCc2ccc(O)c(O)c2)cc1O [Compound 4, 1,2-bis(3,4-dihydroxyphenyl)ethane] | 19.3 ± 0.00 | 68.0 ± 1.71 | 92.8 ± 2.59 | 93.5 ± 4.42 | 10.8
3 | O=C(Nc1ccc(O)c(O)c1)C(=O)Nc1ccc(O)c(O)c1 [Compound 63, oxalic acid bis(3,4-dihydroxyanilide)] | 11.8 ± 8.06 | 16.5 ± 2.49 | 34.7 ± 1.69 | 77.8 ± 1.13 | 

Results, then the compound that gave them:

Row | % dissolution/disruption/inhibition Tau (result ± S.D.) (aggregated Tau-441; [1]) [%] | % dissolution/disruption/inhibition Tau (result ± S.D.) (aggregated Tau-441; [2]) [%] | % dissolution/disruption/inhibition Tau (result ± S.D.) (aggregated Tau-441; [3]) [%] | % dissolution/disruption/inhibition Tau (result ± S.D.) (aggregated Tau-441; [4]) [%] | IC50 (Tau aggregates) [µM] | SMILES
4 | 17.4 ± 4.88 | 54.1 ± 2.62 | 91.2 ± 0.56 | 94.1 ± 2.99 | 3.95 | O=C(Nc1ccc(O)c(O)c1)Nc1ccc(O)c(O)c1 [Compound 76, 1,3-Bis(3,4-dihydroxyphenyl)urea]
5 |  |  |  |  | 5.26 | O=C(NCCc1ccc(O)c(O)c1)Nc1ccc(O)c(O)c1 [Compound 78, 1-(3,4-Dihydroxyphenyl)-3-(3,4-dihydroxyphenethyl)urea]
